The values that follow come from patent US20080207669A1, “(S)-N-Stereoisomers of 7,8-Saturated-4,5-Epoxy-Morphinanium Analogs” (Progenics Pharmaceuticals, Inc., priority 2006, published 2008).

For one assay, the target named is μ receptors (Homo sapiens, UniProt P35372). Put plainly: Opiate receptor radioligand binding, competition with diprenorphine, naltrexone control. The note with it: compared to naltrexone control; test concentration not given. The source says: Opiate Receptor Binding of (S)-7,8-saturated-4,5α-epoxy-morphinaniums. Radioligand binding assays may be conducted to determine the binding specificity of an (S)-7,8-saturated-4,5-epoxy-morphinanium for μ-, κ-, and δ-opiate receptors using methods adapted from scientific literature (Simonin, F et al 1994, Mol. Pharmacol. 46:1015-1021; Maguire, P. et al 1992, Eur. J. Pharmacol. 213:219-225; Simonin, F. et al PNAS USA 92(15):1431-1437; Wang, J B 1994, FEBS Lett 338:217-222). For example, a membrane may be associated with human opioid receptor material. Diprenorphine which has an affinity for all […] opioid receptors, can be used as a competitive challenge to the test compound. Membranes can then be separated, and the binding of the test compounds to the receptor material can be determined by scintillation counting. A control, such as naltrexone, can be used to determine relative binding affinity.

The target in assay [1] is T1, μ-opioid receptors in the guinea pig ileum (Cavia porcellus, UniProt A0ACM8Q262). Put plainly: Field-stimulated guinea pig ileum, evaluation of antagonist activity against DAMGO. The note with it: for remaining activity at 100 µM / remaining activity at 10 µM / remaining activity at 1 µM / remaining activity at 0.1 µM / remaining activity at 0.01 µM / remaining activity at 30 µM / remaining activity at 3 µM / remaining activity at 0.3 µM / remaining activity at 0.03 µM: guinea pig, mean, n=2, read-out: Response to DAMGO (1.0E-07 M) in the presence of the compound, percent of the control response to DAMGO; for remaining activity at 100 µM: compound 1.0E-04 M; for remaining activity at 10 µM: compound 1.0E-05 M; for remaining activity at 1 µM: compound 1.0E-06 M; for remaining activity at 0.1 µM: compound 1.0E-07 M; for remaining activity at 0.01 µM: compound 1.0E-08 M; for remaining activity at 30 µM: compound 3.0E-05 M; for remaining activity at 3 µM: compound 3.0E-06 M; for remaining activity at 0.3 µM: compound 3.0E-07 M; for remaining activity at 0.03 µM: compound 3.0E-08 M; for Antagonist activity IC50 value: inhibition of the response to DAMGO, guinea pig ileum. Here is the method:
(§1) In Vitro Pharmacology of (S)-7,8-saturated-4,5α-epoxy-morphinaniums on μ receptor. Mμ-receptor agonist/antagonist activity may be adjudged by use of field-stimulated guinea pig ileum by methods known in the art. For example, segments of guinea pig terminal ileum may be suspended in 20-ml organ baths filled with an oxygenated (95% O2 and 5% CO2) and pre-warmed (37° C.) physiological salt solution of the following composition (in mM): NaCl 118.0, KCl 4.7, MgSO4 1.2, CaCl2 2.5, KH2PO4 1.2, NaHCO3 25.0 and glucose 11.0 (pH 7.4). Additional experimental conditions that may be followed are described in Hutchinson et al. (1975) Brit. J. Pharmacol., 55:541-546.
(§2) Indomethacin (1 μM), nor-binaltorphimine (0.01 μM), methysergide (1 μM), ondansetron (10 μM) and GR113808 (0.1 μM) may be also present throughout an experiment to prevent prostanoid release and to block the k-opioid, 5-HT2, 5-HT3 and 5-HT4 receptors, respectively. The tissues in such tests are typically connected to force transducers for isometric tension recordings. The tissue may be stretched to a resting tension, for example, of 1 g then allowed to equilibrate, for example, about 60 min during which time they may be washed repeatedly and the tension readjusted. Electrical stimulation with pulses of minimal intensity to trigger maximal contractions and a short duration, for example, 1 ms duration, delivered by a constant current stimulator at a frequency such a 0.1 Hz.
Exemplary Test for Antagonist Activity. The tissues may be exposed to a submaximal concentration of the reference agonist DAMGO (0.1 μM) to obtain a control response. […] Each concentration may be left in contact with the tissues until a stable response is obtained or for a maximum time, such as 15 min. The maximum change in the amplitude of the electrically-evoked twitch contractions induced by each compound concentration may be measured. […] The EC50 value (concentration producing a half-maximum response) or IC50 value (concentration causing a half-maximum inhibition of the response to DAMGO) may be determined by linear regression analysis of the concentration-response curves. Inhibition of the DAMGO-induced response by the (S)-7,8-saturated-4,5-epoxy-morphinanium may indicate an antagonist activity at the μ receptors.

The target of assay [2] is T1, μ-opioid receptors in the guinea pig ileum. In words: Field-stimulated guinea pig ileum, evaluation of agonist activity. The note with it: for activation at 100 µM: 1.0E-04 M; for activation at 10 µM: 1.0E-05 M; for activation at 0.1 µM: 1.0E-07 M; for activation at 0.01 µM: 1.0E-08 M; for activation at 30 µM: 3.0E-05 M; for activation at 3 µM: 3.0E-06 M; for activation at 0.3 µM: 3.0E-07 M; for activation at 0.03 µM: 3.0E-08 M; for Response to compound + Naloxone, percent of the control response to DAMGO: compound 1.0E-04 M + Naloxone 1.0E-07 M; for activation at 1 µM: 1.0E-06 M. As to the method: as §1, §2
Exemplar Test for Agonist Activity. The tissues may be exposed to a submaximal concentration of the reference agonist DAMGO (0.1 μM) to verify responsiveness and to obtain a control response. Following extensive washings and recovery of the control twitch contractions, the tissues may be exposed to increasing concentrations of the (S)-7,8-saturated-4,5-epoxy-morphinanium or the same agonist. The different concentrations may be added cumulatively and each left in contact with the tissues until a stable response is obtained or for a maximum of 15 min.

[3] abbreviates: mean, n=2, read-out: Response to compound (decrease in twitch contraction amplitude), percent of the control response to DAMGO.

T1 sequence (A0ACM8Q262 1-400): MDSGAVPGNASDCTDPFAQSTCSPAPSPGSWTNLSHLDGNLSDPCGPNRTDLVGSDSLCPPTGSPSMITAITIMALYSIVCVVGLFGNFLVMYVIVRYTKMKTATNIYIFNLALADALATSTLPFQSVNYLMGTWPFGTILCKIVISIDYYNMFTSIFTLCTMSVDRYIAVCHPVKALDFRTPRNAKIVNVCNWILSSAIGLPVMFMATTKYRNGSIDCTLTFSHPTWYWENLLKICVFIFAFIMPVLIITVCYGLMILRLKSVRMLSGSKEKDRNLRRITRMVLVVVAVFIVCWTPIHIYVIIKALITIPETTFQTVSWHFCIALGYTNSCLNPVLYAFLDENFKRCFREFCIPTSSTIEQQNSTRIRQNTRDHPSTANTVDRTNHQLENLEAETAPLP
μ receptors, sequence (P35372 whole entry): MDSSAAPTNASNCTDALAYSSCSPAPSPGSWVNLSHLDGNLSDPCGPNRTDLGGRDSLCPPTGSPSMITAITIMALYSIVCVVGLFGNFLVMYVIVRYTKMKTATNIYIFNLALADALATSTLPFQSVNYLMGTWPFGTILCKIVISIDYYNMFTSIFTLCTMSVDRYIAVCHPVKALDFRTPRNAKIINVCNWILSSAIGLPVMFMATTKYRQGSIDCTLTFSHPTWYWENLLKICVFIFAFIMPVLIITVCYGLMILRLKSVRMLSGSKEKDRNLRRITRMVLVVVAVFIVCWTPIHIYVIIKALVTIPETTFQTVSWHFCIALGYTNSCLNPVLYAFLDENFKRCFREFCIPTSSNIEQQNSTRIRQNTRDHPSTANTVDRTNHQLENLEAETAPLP

As for `CC(C)=CC[N+]1(C)CC[C@]23c4c5ccc(O)c4O[C@H]2C(=O)CC[C@@]3(O)[C@H]1C5.[I-]` (stereo partly drawn) [(S)-17-(3,3-dimethylallyl)-4,5α-epoxy-3,14-di-hydroxy-17-methyl-6-oxomorphinanium iodide], the “inhibition of control specific binding at the μ receptor” value (“inhibition of control specific binding” below) on μ receptors stood at 65%.
Regarding `C=CC[N+]1(CC2CC2)CC[C@]23c4c5ccc(O)c4O[C@H]2C(=O)CC[C@@]3(O)[C@H]1C5` (stereo partly drawn) [(S)-17-Allyl-17-cyclopropylmethyl-4,5α-epoxy-3,14-di-hydroxy-6-oxomorphinanium Iodide], the “inhibition of control specific binding” value on μ receptors came to 68%.
On to `CC(C)=CC[N+]1(C)CC[C@]23c4c5ccc(O)c4O[C@H]2C(=O)CC[C@@]3(O)[C@H]1C5.[I-]` (stereo partly drawn) [(S)-DMAM, (S)-17-(3,3-dimethylallyl)-4,5α-epoxy-3,14-di-hydroxy-17-methyl-6-oxomorphinanium iodide], for which, in assay [1], the remaining activity at 100 µM is 113%, the remaining activity at 10 µM was found to be 110%, the remaining activity at 1 µM was 101% and the remaining activity at 0.1 µM stood at 100%. In assay [1], the remaining activity at 0.01 µM turned out to be 100%, the remaining activity at 30 µM was 113%, the remaining activity at 3 µM is 105% and the remaining activity at 0.3 µM worked out at 100%. Besides, in assay [1], the remaining activity at 0.03 µM was 100% and the “Antagonist activity IC50 value” is listed as “No antagonist activity”. Further, in assay [2] (setting [3]), the activation at 100 µM came out at 101%, the activation at 10 µM worked out at 93%, the activation at 0.1 µM was determined as 8% and the activation at 0.01 µM amounted to 0%. Besides, in assay [2] (setting [3]), the activation at 30 µM turned out to be 99%, the activation at 3 µM stood at 77%, the activation at 0.3 µM came out at 19% and the activation at 0.03 µM stood at 0%. Besides, the “Response to compound + Naloxone, percent of the control response to DAMGO” value in assay [2] (mean, n=2) amounted to 77%. Besides, the EC50 (in general, the concentration that produces a half-maximal response) in assay [2] (read-out: Agonist activity EC50 value, concentration producing a half-maximum response, guinea pig ileum) was 1300 nM.
For the compound `C[N+]1(CC#Cc2ccccc2)CC[C@]23c4c5ccc(O)c4O[C@H]2C(=O)CC[C@@]3(O)[C@H]1C5` (stereo partly drawn) [(S)-PM], the “inhibition of control specific binding” value at μ receptors was 80%. In assay [1], the remaining activity at 100 µM amounted to 110%, the remaining activity at 10 µM amounted to 100%, the remaining activity at 1 µM was found to be 100% and the remaining activity at 0.1 µM was 100%. In addition, in assay [1], the remaining activity at 0.01 µM worked out at 100%, the remaining activity at 30 µM amounted to 100%, the remaining activity at 3 µM was 100% and the remaining activity at 0.3 µM was 100%. In addition, in assay [1], the remaining activity at 0.03 µM worked out at 100% and the “Antagonist activity IC50 value” is reported as “No antagonist activity”. In assay [2] (setting [3]), the activation at 100 µM is 89%, the activation at 10 µM is 53%, the activation at 1 µM worked out at 25% and the activation at 0.1 µM came out at 6%. Besides, in assay [2] (setting [3]), the activation at 0.01 µM was determined as 0%, the activation at 30 µM was found to be 71%, the activation at 3 µM was 38% and the activation at 0.3 µM was found to be 12%. Further, in assay [2] (setting [3]), the activation at 0.03 µM turned out to be 0%. Besides, the “Response to compound + Naloxone, percent of the control response to DAMGO” value in assay [2] (mean, n=2) worked out at 30%.
For the compound `C[C@@H](NC(=O)[C@@H](N)Cc1ccc(O)cc1)C(=O)NCC(=O)N(C)[C@@H](Cc1ccccc1)C(=O)NCCO` [DAMGO, reference compound], in assay [2] (setting [3]), the activation at 1 µM was 103%, the activation at 0.1 µM was found to be 96% and the activation at 0.01 µM worked out at 57%. Further, the activation at 0.001 µM in assay [2] (1.0E-09 M, mean, n=2, read-out: Response to compound (decrease in twitch contraction amplitude), percent of the control response to DAMGO) is 9%. Also, the “Response to DAMGO + Naloxone, percent of the control response to DAMGO” value in assay [2] (highest DAMGO concentration + Naloxone 1.0E-07 M, mean, n=2) worked out at 4%.
